From patent US5726012A, “Rapid, high capacity nucleic acid based assay” (E. I. du Pont de Nemours and Company, priority 1994, dated 1998)
In brackets after ≈: the same amount, converted by molar mass. Read-outs that look alike come from different tables or passages of the source.

Experiments:
[1] = test system: HIV RF (HIV-1 RNA) in MT-2 cells; test: Quantitation of cell associated HIV-1 RNA in infected MT-2 cells (correlation study); assay type: cell-based, HIV-1 (strain RF); conditions: for IC90 for HIV-1 RNA compared with IC90 for yield of infectious virus / cell associated RNA: 72 hours, MT-2 cells, HIV RF; for IC90: Human immunodeficiency virus 1, MT2, 72 h, 72 hrs after infection
Procedure: HIV-1 infected cell lysates from MT-2 cells grown for 24, 48 and 72 hours after infection with different initial multiplicities of infection (MOI, e.g., TCID 50 per cell) of HIV-1RF were prepared by the cell pelleting method as described in Example 5. The tissue culture infectious dose (TCID 50) for HIV-1 RF stocks were determined in MT-2 cells by a modification of the method of Johnson et al., "Infectivity Assay", Techniques in HIV Research, Aldovina et al. (1990) wherein the tissue culture medium was not changed after four days. 40 μl of the lysate and 5 μl of 1 μM biotinylated `pol` oligo were combined with GED to a final volume of 100 μl and a GED concentration of 3M and a final biotinylated `pol` oligo concentration of 50 nM. Hybridization was carried out overnight at 37° C. in sealed polypropylene tubes. Each sample was diluted three-fold with deionized water to a final GED concentration of 1M and aliquots (120 μl) transferred to streptavidin coated microtiter plate wells. The biotin oligo-RNA complex solution was incubated with the immobilized streptavidin for two hours at room temperature, after which the plates were washed six times with DuPont ELISA plate wash buffer (phosphate buffered saline (PBS)/0.05% Tween 20) with a Denley plate washer. A second hybridization was carried out by adding 120 μl of hybridization cocktail containing 4× standard saline citrate (0.15M NaCl, 0.015 sodium citrate) (SSC), 0.66% Triton X-100 and 6.66% deionized formamide, 1 mg/ml bovine serum albumin (BSA) and 5 nM `pol` AP reporter oligo to each well. After hybridization for one hour at 37° C., the plate was again washed six times in PBS/0.05% Tween 20. Alkaline phosphatase activity was detected by addition of 100 μl of substrate detection buffer, consisting of: 0.2 mM 4-methylumbelliferyl phosphate (MUBP, JBL Scientific) in 2.5M diethanolamine pH 8.9 (JBL), 10 mM MgCl2, 5 mM Zinc acetate dihydrate, and 5 mM n-hydroxyethyl-ethylene-diamine-triacetic acid. The plates were incubated at 37° C. Fluorescence was measured using a microplate fluorometer (Dynateck) exciting at 365 nm and emitting at 450 nm. […] At MOI's greater than 1 for cells cultured 72 hours after infection the level of HIV-1RNA was diminished by cell death that occurs as a result of extensive virus replication.
MT-2 cells were infected by resuspension in medium (Dulbecco's Modified Eagles, 5% Fetal calf serum, 50 ug/ml glutamine, 50 ug/ml gentamycin) containing either 1 ×10^6 TCID 50/ ml (FIGS. 7 and 9) or 2.5×10^5 TCID 50/ml of HIV RF virus (FIGS. 8 and 9) to a final concentration of 5×10^5 cells/ml, with or without various concentrations of AZT or P9941 which is (2S,3R,4R, 5S)-N,N'-[(2-pyridylacetyl)-L-isoleucyl]-2,5-diamino-1,6-diphenyl-hexane-3,4-diol as described in WO91/18866, the disclosure of which is incorporated by reference. After incubation for four hours at 37° C., the cells were pelleted, the supernatant medium removed, and cells resuspended in an equal volume of medium ± compound without added virus. Culture was continued for a total of 72 hours at 37° C. after which time cells were pelleted, lysed by addition of 5M GED, and stored frozen at -70° C. until quantitation of HIV-1 RNA by the method described in Example 8 except that the `gag` capture/reporter probe set as described in Example 2 was employed. Supernatant medium from each sample was frozen at -120° C. until determination of yield of infectious virus by plaque assay as described in Example 11. […] Both cell associated RNA and yield of infectious virus were reduced by treatment with either AZT, a reverse transcriptase inhibitor, or P9941, an inhibitor of the HIV encoded protease. The concentration of AZT or P9941 required to inhibit HIV-1 RNA by 90% (IC90) was equivalent to the concentration of AZT or P9941 required to inhibit the yield of infectious virus by 90% (IC90). The concentrations of antiviral compound required to inhibit either HIV-1 RNA or yield of infectious virus by 90% (IC90) were very similar. […]

[2] = test system: HIV RF (infectious virus) in MT-2 cells; test: Yield of infectious virus by plaque assay (yield reduction assay) in MT-2 cells; assay type: cell-based, HIV-1 (strain RF); conditions: for yield of infectious virus: 72 hours, MT-2 cells, HIV RF; for IC90: Human immunodeficiency virus 1, MT2, 72 h
Procedure: Test compounds were dissolved in dimethylsulfoxide to 5 mg/ml and serially diluted into RPMI 1640 medium to 10 times the desired final concentration. MT-2 cells (5×10^5 /ml) in 2.3 ml were mixed with 0.3 ml of the appropriate test compound solution and allowed to sit for 30 minutes at room temperature. HIV-1 IIIB or HIV-1 RF virus (~5×10^5 plaque forming units/ml) in 0.375 ml was added to the cell and compound mixtures and incubated for one hour at 36° C. The mixtures were centrifuged at 1000 rpm for 10 minutes and the supernatants containing unattached virus were discarded. The cell pellets were suspended in fresh RPMI 1640 containing the appropriate concentrations of test compound and placed in a 36° C., 4% CO2 incubator. Virus was allowed to replicate for three days. Cultures were centrifuged for 10 minutes at 1000 rpm and the supernatants containing cell free progeny virus removed for plaque assay. Virus suspensions were serially diluted in RPMI 1640 and 1.0 ml of each dilution added to 9 ml of MT-2 cells in RPMI 1640. Cells and virus were incubated for three hours at 36° C. to allow for efficient attachment of the virus to cells. Each virus and cell mixture was aliquoted equally to two wells of a six well poly-L-lysine coated culture plate and incubated overnight at 36° C., 4% CO2. Liquid and unattached cells were removed prior to the addition of 1.5 ml of RPMI 1640 with 0.75% (w/v) Seaplaque agarose (FMC Corp) and 5% FCS. Plates were incubated for three days and a second RPMI 1640/agarose overlay added. After an additional three days at 36° C., 4% CO2, a final overlay of PBS with 0.75% Seaplaque agarose and 1 mg/ml MTT was added. The plates were incubated overnight at 36° C. Clear plaques on a purple background were counted and the number of plaque forming units of virus calculated for each sample. The virus titers of the progeny virus produced in the presence or absence of test compounds was determined by plaque assay as described above. The antiviral activity of test compounds was determined by the percent reduction in the virus titer with respect to virus grown in the absence of any inhibitors.
MT-2 cells were infected by resuspension in medium (Dulbecco's Modified Eagles, 5% Fetal calf serum, 50 ug/ml glutamine, 50 ug/ml gentamycin) containing either 1 ×10^6 TCID 50/ ml (FIGS. 7 and 9) or 2.5×10^5 TCID 50/ml of HIV RF virus (FIGS. 8 and 9) to a final concentration of 5×10^5 cells/ml, with or without various concentrations of AZT or P9941 which is (2S,3R,4R, 5S)-N,N'-[(2-pyridylacetyl)-L-isoleucyl]-2,5-diamino-1,6-diphenyl-hexane-3,4-diol as described in WO91/18866, the disclosure of which is incorporated by reference. After incubation for four hours at 37° C., the cells were pelleted, the supernatant medium removed, and cells resuspended in an equal volume of medium ± compound without added virus. Culture was continued for a total of 72 hours at 37° C. after which time cells were pelleted, lysed by addition of 5M GED, and stored frozen at -70° C. until quantitation of HIV-1 RNA by the method described in Example 8 except that the `gag` capture/reporter probe set as described in Example 2 was employed. Supernatant medium from each sample was frozen at -120° C. until determination of yield of infectious virus by plaque assay as described in Example 11. […] Both cell associated RNA and yield of infectious virus were reduced by treatment with either AZT, a reverse transcriptase inhibitor, or P9941, an inhibitor of the HIV encoded protease. The concentration of AZT or P9941 required to inhibit HIV-1 RNA by 90% (IC90) was equivalent to the concentration of AZT or P9941 required to inhibit the yield of infectious virus by 90% (IC90). The concentrations of antiviral compound required to inhibit either HIV-1 RNA or yield of infectious virus by 90% (IC90) were very similar. For both HIV RNA and yield of infectious virus, this IC90 value was affected by the initial MOI (Table 1).

With `CC[C@H](C)[C@H](NC(=O)Cc1ccccn1)C(=O)N[C@@H](Cc1ccccc1)[C@@H](O)[C@H](O)[C@H](Cc1ccccc1)NC(=O)[C@@H](NC(=O)Cc1ccccn1)[C@@H](C)CC` [P9941, (2S,3R,4R, 5S)-N,N'-[(2-pyridylacetyl)-L-isoleucyl]-2,5-diamino-1,6-diphenyl-hexane-3,4-diol] the “IC90 for HIV-1 RNA compared with IC90 for yield of infectious virus” value [1] was “equivalent”, the “cell associated RNA” value [1] was “reduced” and the IC90 ([1]; MOI = 0.5) was 0.55 µg/mL (≈ 0.719 µM). The IC90 ([1]; MOI = 2.0) was 1.5 µg/mL (≈ 1.96 µM), the “yield of infectious virus” value [2] was “reduced” and the IC90 ([2]; 72 hrs after infection, MOI = 0.5, read-out: IC90, PFU) was 0.38 µg/mL (≈ 0.497 µM). For the same compound, the IC90 ([2]; 72 hrs after infection, MOI = 2.0, read-out: IC90, PFU) was 1 µg/mL (≈ 1.31 µM).
For `Cc1cn([C@H]2C[C@H](N=[N+]=[N-])[C@@H](CO)O2)c(=O)[nH]c1=O` [AZT], the “IC90 for HIV-1 RNA compared with IC90 for yield of infectious virus” value [1] was “equivalent”, the “cell associated RNA” value [1] was “reduced” and the IC90 ([1]; MOI = 0.5) was 0.12 µg/mL (≈ 0.449 µM). The IC90 ([1]; MOI = 2.0) was 0.2 µg/mL (≈ 0.748 µM), the “yield of infectious virus” value [2] was “reduced” and the IC90 ([2]; read-out: IC90, PFU, 72 hrs after infection, MOI = 0.5) was 0.09 µg/mL (≈ 0.337 µM). For the same compound, the IC90 ([2]; read-out: IC90, PFU, 72 hrs after infection, MOI = 2.0) was 0.28 µg/mL (≈ 1.05 µM).
